{"source": "ChEMBL document CHEMBL1147427", "about": "“2-hydroxy-4-isopropylbenzaldehyde, a potent partial tyrosinase inhibitor” (Bioorg Med Chem Lett, 2004)", "tested_on": "Tyrosinase (Agaricus bisporus)", "experiment": "Inhibitory activity at a concentration of 0.5 nm, was evaluated against the oxidation of L-3,4-dihydroxyphenylalanine (L-DOPA) catalyzed by mushroom tyrosinase; No inhibitory activity", "data": [{"smiles": "COc1cc(C(C)C)ccc1C=O", "values": [{"measurement": "IC50", "value": "No inhibition"}]}]}
